Values of other authors, collected in patent US8410124B2, “Deuterated etravirine” (Concert Pharmaceuticals Inc., priority 2007, dated 2013).

Assays:
[1] = over a 2 hour period
[2] = humans

Cc1cc(C#N)cc(C)c1Oc1nc(Nc2ccc(C#N)cc2)nc(N)c1Br [etravirine, 4-(6-amino-5-bromo-2-(4-cyanophenylamino)pyrimidin-4-yloxy)-3,5-dimethylbenzonitrile]
degradation in human liver microsomes [1]: 15% | excreted largely intact in the feces ([2]; feces): > 85% | excreted largely intact in the urine ([2]; urine): < 1% | most common adverse effects of the combined regimen (healthy volunteers, etravirine in combination with lopinavir/ritonavir): diarrhea and headache | safety and tolerability profile (phase IIb trials with treatment-experienced patients): generally comparable with placebo | mild side effects (trials with HIV-1-infected patients dosed with etravirine): diarrhea, headache, abdominal pain, acute tonsillitis, flatulence, gastroenteritis, hot flushes, insomnia, intercostal pain, pruritus, somnolence, tachycardia and vomiting
